How the values were obtained:
rat model of AD = rat model of AD (Sarkar); cited from earlier work
patients with AD = experiment: Administering T3 to patients with AD (clinical observation); format: in vivo, human
Source text: The noradrenerigic neurotransmitter system is dependent on normal thyroid hormone activity for normal function. A deficient amount of thyroid hormone activity leads to downregulation of the noradrenergic system. This leads to attenuated postsynaptic effects and a failure to prosecute the noradrenergic mandate. In AD this phenomenon accounts for various signs and symptoms. There are aberrations of the diurnal rhythm including insomnia and daytime somnolence. Depression and/or anxiety may occur. Drooping of the upper eyelid (ptosis) is frequently seen in AD. The levator palpebrae superioris muscle, the elevator of the upper eyelid, is partially innervated by the sympathetic nervous system.

[1] = following ingestion; cited from earlier work
[2] = compounding pharmacies' technology, personal communication; cited from earlier work

For `N[C@@H](Cc1cc(I)c(Oc2ccc(O)c(I)c2)c(I)c1)C(=O)O` [T3, 3,5,3′-triiodothyronine], the “histology, memory and electrophysiological activity in the cholinergic system” value (rat model of AD) is given as “improved histology, memory and electrophysiological activity in the cholinergic system”, the “countenance and alertness (ptosis, adrenergic dysregulation)” value (patients with AD) is given as “rapid, within days, and dramatic wide-eyed countenance and an appearance of increased alertness” and the “time to peak levels” value [1] is given as “one to two”. For the same compound, the “time of release to completion” value [2] was 2 to 8 h.

Source: patent US20200170932A1, “EXTENDED RELEASE L-TRI-IODOTHYRONINE SAFELY NORMALIZES KEY ELEMENTS OF MOLECULAR PATHOLOGY IN ALZHEIMERS DISEASE” (priority 2018, published 2020)
